Several values for one entry are separate records, joined by “and”; a condition that tells them apart may be missing. Identical values can stand only once. Like-named read-outs stand apart in the source and are kept apart here.
Key:
human PNMT (hPNMT) [1] = target: T1, human PNMT (hPNMT) (Homo sapiens, UniProt P11086); assay: Isothermal titration calorimetry of ligand binding to hPNMT; conditions: for binding to free hPNMT: no AdoMet or AdoHcy present
T1 sequence (P11086 1-282): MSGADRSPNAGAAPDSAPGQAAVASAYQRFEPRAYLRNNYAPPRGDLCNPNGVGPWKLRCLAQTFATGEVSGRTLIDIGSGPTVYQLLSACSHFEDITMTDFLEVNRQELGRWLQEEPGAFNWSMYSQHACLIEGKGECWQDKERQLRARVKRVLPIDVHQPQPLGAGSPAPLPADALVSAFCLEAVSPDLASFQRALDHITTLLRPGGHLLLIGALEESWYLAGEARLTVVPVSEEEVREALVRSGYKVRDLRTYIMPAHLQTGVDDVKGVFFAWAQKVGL

human PNMT (hPNMT) [2] = target: T1, human PNMT (hPNMT); assay: hPNMT initial velocity studies; format: biochemical
human PNMT (hPNMT) [3] = target: T1, human PNMT (hPNMT); assay: Determination of inhibition constants and inhibition patterns for hPNMT; format: biochemical; conditions: pH 8.0, 30 °C; for Ki: read-out: Kis
human PNMT (hPNMT) [4] = target: T1, human PNMT (hPNMT); assay: pH dependence of hPNMT kinetic parameters and of Ki for SK&F 29661; conditions: pH 6-10, 30 °C; fit to eq 6
human PNMT (hPNMT) [5] = target: T1, human PNMT (hPNMT); conditions: pH 8.0, 30 °C; ref [30]; cited from earlier work
[6] = varied substrate AdoMet, fixed PEA 100 μM
[7] = varied substrate PEA, fixed AdoMet 5 μM

| binding to free hPNMT (human PNMT (hPNMT) [1]; ITC) | Compound | Kd (human PNMT (hPNMT) [1]) | Kii (human PNMT (hPNMT) [3]; [7]) | pKa2 from LogV/K pH profile (human PNMT (hPNMT) [4]) | pKa3 from LogV/K pH profile (human PNMT (hPNMT) [4]) | further results |
| --- | --- | --- | --- | --- | --- | --- |
| did not bind | NCC(O)c1ccc(O)cc1 (stereo not drawn) [Octopamine, octopamine] | 3.3 ± 0.1 µM |  |  |  | Kia (human PNMT (hPNMT) [2]; dissociation constant from eq 1, phosphate buffer pH 8.0, 30 °C): 2.1 ± 0.2 µM; Km lower than that of PEA (human PNMT (hPNMT) [2]; ratio of Km values against PEA): 20 fold |
|  | CNC[C@H](O)c1ccc(O)c(O)c1 [Epinephrine, epinephrine] |  | 51 ± 1.0 µM |  |  | preference for binding in presence of AdoHcy over AdoMet (human PNMT (hPNMT) [1]; ITC): 5 fold; Kii (human PNMT (hPNMT) [3]; [6]): 22 ± 0.8 µM |
|  | C[S+](CC[C@H](N)C(=O)[O-])C[C@H]1O[C@@H](n2cnc3c(N)ncnc32)[C@H](O)[C@@H]1O (stereo partly drawn) [AdoMet, S-adenosyl-L-methionine] | 4.6 ± 0.7 µM |  | 7.25 | 9.15 ± 0.12 |  |
| did not bind | NC[C@H](O)c1ccc(O)c(O)c1 [NE, norepinephrine] | 7.2 ± 0.2 µM |  |  |  |  |
|  | Nc1ncnc2c1ncn2[C@@H]1O[C@H](CSCC[C@H](N)C(=O)O)[C@@H](O)[C@H]1O [AdoHcy, S-adenosyl-L-homocysteine] |  | 1.0 ± 0.02 µM |  |  | Ki (human PNMT (hPNMT) [3]; [6]): 0.8 ± 0.04 µM; Ki (human PNMT (hPNMT) [3]; [7]): 2.5 ± 0.28 µM |

| Compound | binding to free hPNMT (human PNMT (hPNMT) [1]; ITC) | Kd (human PNMT (hPNMT) [1]) | Kii (human PNMT (hPNMT) [3]; [7]) | pKa2 from LogV/K pH profile (human PNMT (hPNMT) [4]) | pKa3 from LogV/K pH profile (human PNMT (hPNMT) [4]) | further results |
| --- | --- | --- | --- | --- | --- | --- |
| NCC(O)c1ccccc1 (stereo not drawn) [PEA, phenylethanolamine] | did not bind | 60 ± 2 µM |  | 8.66 and 8.66 ± 0.03 | 9.26 and 9.26 ± 0.03 | kcat (human PNMT (hPNMT) [5]): 0.0473 ± 0.00167 s⁻¹; kcat/Ka (human PNMT (hPNMT) [5]): (2.8 ± 0.2) × 10^4 M^−1 min^−1 |

Source: article PMC3853373 (Archives of biochemistry and biophysics, 2013)
